Results taken from patent US8791132B2, “Compounds and methods for treatment of hypertension” (Medivation Technologies, Inc., priority 2011, dated 2014).
Like-named read-outs stand apart in the source and are kept apart here. Each block holds one compound with its values, some of them ahead of it.

What was measured:
[1] = molecular target: T1, rat adrenergic α1B receptor (Rattus norvegicus, UniProt P15823); assay: Radioligand binding, adrenergic α1B ([3H]Prazosin)
T1 construct: rat adrenergic α1B receptor obtained from Wistar Rat liver; from tissue; host or cells: Wistar rat liver
T1 sequence (P15823 1-515): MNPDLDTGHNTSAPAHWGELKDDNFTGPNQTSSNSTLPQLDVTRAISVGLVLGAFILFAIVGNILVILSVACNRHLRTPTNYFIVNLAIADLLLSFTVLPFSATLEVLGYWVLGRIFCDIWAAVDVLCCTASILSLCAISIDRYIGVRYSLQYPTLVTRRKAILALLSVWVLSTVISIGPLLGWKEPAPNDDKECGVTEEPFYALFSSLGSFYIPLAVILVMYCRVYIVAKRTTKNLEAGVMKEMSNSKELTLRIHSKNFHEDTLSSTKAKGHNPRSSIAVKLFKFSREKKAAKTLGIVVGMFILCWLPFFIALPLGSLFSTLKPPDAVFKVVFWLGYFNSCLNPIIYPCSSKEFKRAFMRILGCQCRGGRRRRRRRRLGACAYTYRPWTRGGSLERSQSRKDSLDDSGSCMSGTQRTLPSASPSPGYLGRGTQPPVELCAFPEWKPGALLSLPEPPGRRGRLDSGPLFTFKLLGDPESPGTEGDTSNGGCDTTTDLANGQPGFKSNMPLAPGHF
Experimental: To evaluate in radioligand binding assays the activity of compounds of the invention, rat adrenergic α1B receptor obtained from Wistar Rat liver (Garcia-S'ainz, J. et al, Biochem. Biophys. Res. Commun. 186:760, 1992; Michel, A. et al, Br. J. Pharmacol. 98:883, 1989) in a modified Tris-HCl buffer (50 mM Tris-HCl buffer, pH 7.4, 0.5 mM EDTA) was used. Compounds of the invention were incubated with 0.25 nM [^3H]Prazosin for 60 min at 25° C. Non-specific binding was estimated in the presence of 10 μM phentolamine. Receptor proteins were filtered and washed, the filters were then counted to determine [^3H]Prazosin specifically bound. […] Compounds of the invention were tested in this biochemical assay and percent inhibition of specific binding was determined. Biochemical assay results are presented as the percent inhibition of specific binding in Table B1.

[2] = molecular target: T2, human recombinant adrenergic α2B receptor (Homo sapiens, UniProt P18089); assay: Radioligand binding, adrenergic α2B ([3H]Rauwolscine); details: for Percentage inhibition of ligand binding, Adrenergic α2B / Percentage inhibition of ligand binding, Adrenergic α2B (0.03 μM) / inhibition at 0.03 µM: [3H]Rauwolscine; for Percentage inhibition of ligand binding, Adrenergic α2B / Percentage inhibition of ligand binding, Adrenergic α2B (0.03 μM): 0.03 µM
T2 construct: expressed in transfected cells; host or cells: CHO-K1
T2 sequence (P18089 1-450): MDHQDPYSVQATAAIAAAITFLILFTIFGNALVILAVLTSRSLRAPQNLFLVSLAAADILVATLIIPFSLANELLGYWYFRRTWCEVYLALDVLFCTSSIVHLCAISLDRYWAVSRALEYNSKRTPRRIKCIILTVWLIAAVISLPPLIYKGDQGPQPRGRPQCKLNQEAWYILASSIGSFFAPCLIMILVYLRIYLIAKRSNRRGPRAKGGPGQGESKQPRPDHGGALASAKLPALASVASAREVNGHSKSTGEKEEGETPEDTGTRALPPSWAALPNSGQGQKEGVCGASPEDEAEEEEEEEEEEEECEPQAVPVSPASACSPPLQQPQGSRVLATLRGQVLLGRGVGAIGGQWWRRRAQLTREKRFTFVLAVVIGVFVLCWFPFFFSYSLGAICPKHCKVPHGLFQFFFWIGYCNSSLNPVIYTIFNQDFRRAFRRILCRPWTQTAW
Experimental: To evaluate in radioligand binding assays the activity of compounds of the invention, human recombinant adrenergic α2B receptor expressed in Chinese hamster ovary (CHO) K1 cells (Uhlen, S. et al, Eur. J. Pharmacol. 343(1):93, 1998) in a modified Tris-HCl buffer (50 mM Tris-HCl, pH 7.4, 12.5 mM MgCl2, 1 mM EDTA, 0.2% BSA) was used. Compounds of the invention were incubated with 2.5 nM [3H]Rauwolscine for 60 min at 25° C. Non-specific binding was estimated in the presence of 10 μM Prazosin. Receptor proteins were filtered and washed, the filters were then counted to determine [3H]Rauwolscine specifically bound. […] Compounds of the invention were tested in this biochemical assay and percent inhibition of specific binding was determined. Biochemical assay results are presented as the percent inhibition of specific binding in Table B1.

[3] = molecular target: T3, human recombinant adrenergic α2A receptor (Homo sapiens, UniProt P08913); assay: Radioligand binding, adrenergic α2A ([3H]MK-912)
T3 construct: expressed in transfected cells; host or cells: insect Sf9 cells
T3 sequence (P08913 1-465): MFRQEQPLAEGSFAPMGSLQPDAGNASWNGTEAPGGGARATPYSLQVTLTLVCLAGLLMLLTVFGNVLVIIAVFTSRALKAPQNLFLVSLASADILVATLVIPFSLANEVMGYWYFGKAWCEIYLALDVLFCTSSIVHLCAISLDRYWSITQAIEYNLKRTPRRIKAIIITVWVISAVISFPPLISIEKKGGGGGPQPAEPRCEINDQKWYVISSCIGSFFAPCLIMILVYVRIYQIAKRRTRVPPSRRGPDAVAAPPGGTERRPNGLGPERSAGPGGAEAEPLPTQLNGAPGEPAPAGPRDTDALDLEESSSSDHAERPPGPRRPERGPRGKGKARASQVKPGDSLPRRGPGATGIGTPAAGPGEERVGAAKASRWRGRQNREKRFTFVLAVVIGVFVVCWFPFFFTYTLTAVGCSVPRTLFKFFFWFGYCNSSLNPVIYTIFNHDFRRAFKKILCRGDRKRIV
Experimental: To evaluate in radioligand binding assays the activity of compounds of the invention, human recombinant adrenergic α2A receptor expressed in insect Sf9 cells (Uhlen, S. et al, J. Pharmacol. Exp. Ther. 271:1558, 1994) in a modified Tris-HCl buffer (50 mM Tris-HCl, pH 7.4, 12.5 mM MgCl2, 2 mM EDTA) was used. Compounds of invention were incubated with 1 nM [^3H]MK-912 for 60 min at 25° C. MK912 is (2S-trans)-1,3,4,5′,6,6′,7,12b-octahydro-1′,3′-dimethyl-spiro[2H-benzofuro[2,3-a]quinolizine-2,4′(1′H)-pyrimidin]-2′(3′H)-one hydrochloride. Non-specific binding was estimated in the presence of 10 μM WB-4101 (2-(2,6-Dimethoxyphenoxyethyl)aminomethyl-1,4-benzodioxane hydrochloride). Receptor proteins were filtered and washed, the filters were then counted to determine [^3H]MK-912 specifically bound. […] Compounds of the invention were tested in this biochemical assay and percent inhibition of specific binding was determined. Biochemical assay results are presented as the percent inhibition of specific binding in Table B1.

[4] = compound at 0.1 μM, [3H]Prazosin, repeat datapoints each shown, 0.1 µM
[5] = compound at 0.03 μM, repeat assays, each datapoint shown
[6] = compound at 0.1 μM, [3H]Prazosin, repeat assays, each datapoint shown, 0.1 µM
[7] = compound at 0.1 μM, [3H]MK-912, repeat assays, each datapoint shown, 0.1 µM
[8] = compound at 0.03 μM, repeat datapoints each shown
[9] = read-out: Percentage inhibition of ligand binding, Adrenergic α1B (0.1 μM), compound at 0.1 μM, [3H]Prazosin, repeat datapoints each shown
[10] = read-out: Percentage inhibition of ligand binding, Adrenergic α2B (0.03 μM), compound at 0.03 μM, repeat datapoints each shown
[11] = 0.1 μM compound, read-out: Percentage inhibition of ligand binding, Adrenergic α1B
[12] = compound at 0.1 μM, [3H]MK-912, repeat datapoints each shown, 0.1 µM
[13] = read-out: Percentage inhibition of ligand binding, Adrenergic α2A (0.1 μM), compound at 0.1 μM, [3H]MK-912, repeat datapoints each shown
[14] = compound at 0.1 μM, [3H]Prazosin, repeat assays, each datapoint shown, read-out: Percentage inhibition of ligand binding, Adrenergic α1B

Structure (SMILES): Cc1ccc2c(c1)c1c(n2CC(N=[N+]=[N-])c2ccncc2)CCN(C)C1 (racemic) [V-1a, 5-(2-azido-2-(pyridin-4-yl)ethyl)-2,3,4,5-tetrahydro-2,8-dimethyl-1H-pyrido[4,3-b]indole]
Percentage inhibition of ligand binding, Adrenergic α1B (0.1 μM) [1, 4]: 20%

Structure (SMILES): Cc1ccc2c(c1)c1c(n2CC(OC(=O)C(N)C(C)C)c2ccncc2)CCN(C)C1 (single isomer, unassigned) [25a]
Percentage inhibition of ligand binding, Adrenergic α2B [2, 5]: 54%
Percentage inhibition of ligand binding, Adrenergic α1B [1, 6]: 4%

Structure (SMILES): Cc1ccc2c(c1)c1c(n2CC(OC(=O)C(N)C(C)C)c2ccncc2)CCN(C)C1 (single isomer, unassigned) [25b]
Percentage inhibition of ligand binding, Adrenergic α2B [2, 5]: 75%
Percentage inhibition of ligand binding, Adrenergic α1B [1, 6]: 12%

Structure (SMILES): Cc1ccc2c(c1)c1c(n2CC(O)c2ccc(C(=O)N(C)C)cc2)CCN(C)C1 (single isomer, unassigned) [52a]
Percentage inhibition of ligand binding, Adrenergic α2A [3, 7]: 5%
Percentage inhibition of ligand binding, Adrenergic α1B [1, 6]: 9%

Structure (SMILES): Cc1ccc2c(c1)c1c(n2CC(O)c2ccc(C(=O)N(C)C)cc2)CCN(C)C1 (single isomer, unassigned) [52b]
Percentage inhibition of ligand binding, Adrenergic α2A [3, 7]: 29%
Percentage inhibition of ligand binding, Adrenergic α1B [1, 6]: 73%

Structure (SMILES): Cc1ccc(CCn2c3c(c4cc(Cl)cnc42)C2CCCN2CC3)cn1 (single isomer, unassigned) [137a]
Percentage inhibition of ligand binding, Adrenergic α2B (0.03 μM) [2, 8]: 104%
Percentage inhibition of ligand binding, Adrenergic α1B (0.1 μM) [1, 4]: 94%

Structure (SMILES): Cc1ccc2c(c1)c1c(n2CC(O)c2ccc(C#N)cc2)CCN(C)C1 (single isomer, unassigned) [142a]
Percentage inhibition of ligand binding, Adrenergic α2B (0.03 μM) [2, 8]: 71%
inhibition at 0.1 µM [1, 9]: 68%

Structure (SMILES): Cc1ccc2c(c1)c1c(n2CC(c2ccncc2)N2CCCC2)CCN(C)C1 (single isomer, unassigned) [152b]
Percentage inhibition of ligand binding, Adrenergic α1B (0.1 μM) [1, 4]: 7%

Structure (SMILES): Cc1cnc2c(c1)c1c(n2CC(N)c2ccc(C#N)cc2)CCN(C)C1 (single isomer, unassigned) [159a]
inhibition at 0.03 µM [2, 10]: 37%
Percentage inhibition of ligand binding, Adrenergic α1B (0.1 μM) [1, 4]: −2%

Structure (SMILES): CN1CCc2c(n(CC(O)c3ccc(F)c(F)c3)c3ccc(Cl)cc23)CC1 (single isomer, unassigned) [339a]
Percentage inhibition of ligand binding, Adrenergic α2A ([3]; 0.1 μM compound, 0.1 µM): 37%
inhibition at 0.1 µM [1, 11]: 13%

Structure (SMILES): Cc1ccc2c(c1)c1c(n2CC(O)c2cn[nH]c2)CCN(C)C1 (single isomer, unassigned) [II-106a]
inhibition at 0.1 µM [1, 9]: 25%

Structure (SMILES): Cc1ccc2c(c1)c1c(n2CC(O)c2cn[nH]c2)CCN(C)C1 (single isomer, unassigned) [II-106b]
Percentage inhibition of ligand binding, Adrenergic α2A (0.1 μM) [3, 12]: 8%
Percentage inhibition of ligand binding, Adrenergic α1B (0.1 μM) [1, 4]: 31%

Structure (SMILES): Cc1ccc2c(c1)c1c(n2CC(O)c2ccc(F)cc2)CCN(C)C1 (stereo not shown) [30a]
Percentage inhibition of ligand binding, Adrenergic α1B [1, 6]: 57%

Structure (SMILES): Cc1ccc2c(c1)c1c(n2C(C)C(O)c2ccncc2)CCN(C)C1 (stereo not shown) [II-98a]
inhibition at 0.1 µM ([3]; 0.1 μM compound, read-out: Percentage inhibition of ligand binding, Adrenergic α2A): 12%
Percentage inhibition of ligand binding, Adrenergic α1B ([1]; 0.1 μM compound): 33%

Structure (SMILES): Cc1ccc2c(c1)c1c(n2CC(O)c2ccncc2)C(C)N2CCC1C2 (stereo not shown) [compound 38]
inhibition at 0.1 µM [1, 14]: 20%

Structure (SMILES): CN1CCc2c(n(CC(O)c3ccncc3)c3ccc(Cl)cc23)C1 (stereo not shown) [compound 41]
inhibition at 0.1 µM [1, 14]: 57%

The remaining lines, values ahead:

Percentage inhibition of ligand binding, Adrenergic α1B (0.1 μM) [1, 4]: 43%
Structure (SMILES): CN1CCc2c(c3cc(Cl)ccc3n2CC(C)(O)c2ccc(C(F)(F)F)nc2)C1 (single isomer, unassigned) [143a]

Percentage inhibition of ligand binding, Adrenergic α2A (0.1 μM) [3, 12]: 8%
Percentage inhibition of ligand binding, Adrenergic α1B (0.1 μM) [1, 4]: 5%
Structure (SMILES): Cc1ccc2c(c1)c1c(n2CC(C)(O)c2cccnc2)CCN(C)C1C (single isomer, unassigned) [II-152d]

inhibition at 0.1 µM [3, 13]: 46%
inhibition at 0.1 µM [1, 9]: 73%
Structure (SMILES): Cc1ccc2c(c1)c1c(n2CC(O)c2ccncc2)CCN2CCCC12 (stereo not shown) [129a]

Percentage inhibition of ligand binding, Adrenergic α1B (0.1 μM) [1, 4]: 69%
Structure (SMILES): Cc1ccc2c(c1)c1c(n2CC(O)c2ccncc2)CCN2CCCC12 (stereo not shown) [129b]

inhibition at 0.1 µM [3, 13]: 5%
inhibition at 0.1 µM [1, 9]: 7%
Structure (SMILES): Cc1ccc2c(c1)c1c(n2CC(c2ccncc2)N(C)C)CCN(C)C1 (stereo not shown) [150b]

inhibition at 0.03 µM [2, 10]: -2%
inhibition at 0.1 µM [1, 9]: 37%
Structure (SMILES): Cc1ccc2c(c1)c1c(n2CC(C)(O)c2ccc(C)nc2)CN(C)CC1 (stereo not shown) [196b]

inhibition at 0.1 µM ([2]; 0.1 μM compound, read-out: Percentage inhibition of ligand binding, Adrenergic α2B): 27%
Ki ([2]; read-out: Ki α2B): 152 nM
inhibition at 0.1 µM [1, 11]: 5%
Structure (SMILES): Cc1ccc2c(c1)c1c(n2CC(C)(O)c2cccnc2)CC[N+](C)([O-])C1 (stereo not shown) [II-105, 1-(2,8-dimethyl-2-oxy-1,2,3,4-tetrahydro-pyrido[4,3-b]indol-5-yl)-2-pyridin-3-yl-propan-2-ol]

Percentage inhibition of ligand binding, Adrenergic α2A (0.1 μM) ([3]; compound at 0.1 μM, [3H]MK-912, repeat datapoints each shown): 6%
Percentage inhibition of ligand binding, Adrenergic α1B (0.1 μM) ([1]; compound at 0.1 μM, [3H]Prazosin, repeat datapoints each shown): 65%
Structure (SMILES): Cc1ccc2c(c1)c1c(n2CC(C)(O)c2ccncc2)CCN(C)CC1 (stereo not shown) [II-134b]

inhibition at 0.03 µM ([2]; compound at 0.03 μM, repeat assays, each datapoint shown, read-out: Percentage inhibition of ligand binding, Adrenergic α2B): 59%
inhibition at 0.1 µM [1, 14]: 35%
Structure (SMILES): CN1CCc2c(c3cc(Cl)ccc3n2CC(O)c2cccnc2)C1 (stereo not shown) [compound 7]
